In one series the test system is Panicum dichotomiflorum. Kind of series: Post-emergence herbicidal activity against Panicum dichotomiflorum assessed as injury at 50 g/ha applied at 15 days post-sowing measured after 15 days relative to control. Type of series: functional.
Series [1] in a line: Solubility of the compound in organis solvent. Type of series: physicochemical.
The subject of another series is Beta vulgaris. The series is described as follows: Phytotoxicity against Beta vulgaris assessed as injury at 50 g/ha applied as post-emergent treatment at 15 days post-sowing measured after 15 days relative to control. Type of series: organism-based. To be noted: in vivo, other, 360 h.
A further series has as its system Glycine max. Kind of series: Phytotoxicity against Glycine max (soybean) assessed as injury at 150 g/ha applied as pre-emergent treatment at 24 hr post-sowing measured after 28 days relative to control. Type of series: organism-based. To be noted: in vivo, other, 672 h.
Series [2] has as its system Alopecurus myosuroides. The series is described as follows: Pre-emergence herbicidal activity against Alopecurus myosuroides assessed as injury at 150 g/ha applied at 24 hr post-sowing measured after 28 days relative to control. Type of series: functional.
The next series concerns Galium aparine. The series is described as follows: Post-emergence herbicidal activity against Galium aparine assessed as injury at 150 g/ha applied at 15 days post-sowing measured after 15 days relative to control. Type of series: functional.
For the next series, the system named is Geranium dissectum. The series is described as follows: Pre-emergence herbicidal activity against Geranium dissectum assessed as injury at 150 g/ha applied at 24 hr post-sowing measured after 28 days relative to control. Type of series: functional.
Another series concerns Solanum nigrum. The series is described as follows: Post-emergence herbicidal activity against Solanum nigrum (black nightshade) assessed as injury at 15 g/ha applied at 15 days post-sowing measured after 15 days relative to control. Type of series: functional.
Series [3] concerns Zea mays. The series is described as follows: Phytotoxicity against Zea mays (maize) assessed as injury at 50 g/ha applied as post-emergent treatment at 15 days post-sowing measured after 15 days relative to control. The series is classed as organism-based. To be noted: in vivo, other, 360 h.
A further series deals with Persicaria maculosa. The series is described as follows: Pre-emergence herbicidal activity against Persicaria maculosa assessed as injury at 150 g/ha applied at 24 hr post-sowing measured after 28 days relative to control. The series is classed as functional.
In a further series the test system is Ipomoea purpurea. The series is described as follows: Post-emergence herbicidal activity against Ipomoea purpurea (common morning-glory) assessed as injury at 5 g/ha applied at 15 days post-sowing measured after 15 days relative to control. The series is classed as functional.
The subject of the next series is Chenopodium album. The series is described as follows: Post-emergence herbicidal activity against Chenopodium album assessed as injury at 150 g/ha applied at 15 days post-sowing measured after 15 days relative to control. The series is classed as functional.
A further series has as its system Oryza sativa. The series is described as follows: Phytotoxicity against Oryza sativa (rice) assessed as injury at 15 g/ha applied as post-emergent treatment at 15 days post-sowing measured after 15 days relative to control. The series is classed as organism-based. The following applies: in vivo, other, 360 h.
Series [4] is described as follows: Toxicity in po dosed Rattus norvegicus (rat). To be noted: in vivo. Type of series: organism-based.
Series [5] has as its system Phalaris arundinacea. Kind of series: Pre-emergence herbicidal activity against Phalaris arundinacea assessed as injury at 150 g/ha applied at 24 hr post-sowing measured after 28 days relative to control. The series is classed as functional.
For series [6], the system named is Alopecurus myosuroides. The series is described as follows: Post-emergence herbicidal activity against Alopecurus myosuroides assessed as injury at 5 g/ha applied at 15 days post-sowing measured after 15 days relative to control. Type of series: functional.
In the next series the test system is Avena fatua. The series is described as follows: Pre-emergence herbicidal activity against Avena fatua assessed as injury at 150 g/ha applied at 24 hr post-sowing measured after 28 days relative to control. The series is classed as functional.
Series [7] relates to Zea mays. The series is described as follows: Phytotoxicity against Zea mays (maize) assessed as injury at 150 g/ha applied as post-emergent treatment at 15 days post-sowing measured after 15 days relative to control. Type of series: organism-based. The following applies: in vivo, other, 360 h.
The test system of the next series is Sorghum bicolor. The series is described as follows: Post-emergence herbicidal activity against Sorghum bicolor assessed as injury at 150 g/ha applied at 15 days post-sowing measured after 15 days relative to control. Type of series: functional.
The subject of series [8] is Phalaris arundinacea. Kind of series: Post-emergence herbicidal activity against Phalaris arundinacea assessed as injury at 150 g/ha applied at 15 days post-sowing measured after 15 days relative to control. The series is classed as functional.

Among the data in ChEMBL document CHEMBL3046079, “Synthesis, herbicidal activity, and mode of action of IR 5790” (J Agric Food Chem, 2001) are Activity, solubility and LD50 values, retold here.

Consider `C#CCOc1cc(-n2nc(C(C)(C)C)sc2=O)c(Cl)cc1Cl`, for which the Activity in the series on Panicum dichotomiflorum is reported as 50%; with Beta vulgaris it was 50%; in the series with Glycine max, 0%; in the series with Alopecurus myosuroides [2] it was 70%; in the series with Galium aparine it was 50%; in the series on Geranium dissectum, 0%. Besides, the Activity in the series with Solanum nigrum came out at 10%; in the series on Zea mays [3], 0%; in the series on Persicaria maculosa, 50%; in the series with Ipomoea purpurea, 50%; in the series with Chenopodium album it was 90%; with Oryza sativa it was 0%. The Activity is recorded as 0% in the series on Phalaris arundinacea [5]; 0% in the series with Alopecurus myosuroides [6]; 0% in the series on Avena fatua; 0% with Zea mays [7]; 10% with Sorghum bicolor; 30% in the series on Phalaris arundinacea [8]. In series [1], the solubility is more than 250 mg/mL. Moreover, in [4], the LD50 is more than 4000 mg/kg.

For orientation: solubility means the dissolved amount per volume that the medium holds. A high value points to a readily soluble substance. As a reminder, the LD50 is the dose expected to kill half of the subjects tested. Low readings indicate greater toxicity, high ones lower toxicity.
